# Key:
# [1] = system: rabbit serum obtained by immunizing a rabbit with the SARS-CoV strain Frankfurt 1; type: binding; set-up: Binding of a rabbit serum to linear peptides / Binding of a rabbit serum to looped peptides / Rabbit serum linear peptides / Rabbit serum looped peptides / Binding of a rabbit serum to linear peptides of protein N of SARS-CoV Urbani (Rabbit serum linear peptides) / Binding of a rabbit serum to looped/cyclic peptides of protein N of SARS-CoV Urbani (Rabbit serum looped peptides): unit not given here
# [2] = system: antibodies in sera from SARS patients (sera 1a, 1b, 2, 6, 37, 62, London, SARS-yellow, SARS-green); type: binding, human; set-up: Binding of serum 6 to linear peptides of protein X1 of SARS-CoV Urbani / Binding of serum 37 to linear peptides of protein X1 of SARS-CoV Urbani / Binding of serum 6 to looped/cyclic peptide (PEPSCAN-ELISA) / Binding of serum 37 to looped/cyclic peptide (PEPSCAN-ELISA) / Binding of serum 37 to looped/cyclic peptides of protein X1 of SARS-CoV Urbani / Binding of serum 6 to linear peptides of protein X2 / Binding of serum 37 to linear peptides of protein X2 / Binding of serum 37 to looped/cyclic peptides of protein X2 of SARS-CoV Urbani / Binding of serum 6 to linear peptides of protein M of SARS-CoV Urbani / Binding of serum 37 to linear peptides of protein M of SARS-CoV Urbani / Binding of serum 6 to looped/cyclic peptides of protein M of SARS-CoV Urbani / Binding of serum 37 to looped/cyclic peptides of protein M of SARS-CoV Urbani / Binding of serum 6 to linear peptides of protein X3 of SARS-CoV Urbani / Binding of serum 37 to linear peptides of protein X3 of SARS-CoV Urbani / Binding of serum 37 to looped/cyclic peptides of protein X3 of SARS-CoV Urbani / Binding of serum 6 to linear peptides of protein X4 of SARS-CoV Urbani / Binding of serum 37 to linear peptides of protein X4 of SARS-CoV Urbani / Binding of serum 37 to looped/cyclic peptides of protein X4 of SARS-CoV Urbani / Binding of serum 6 to linear peptides of protein X5 of SARS-CoV Urbani / Binding of serum 37 to linear peptides of protein X5 of SARS-CoV Urbani / Binding of serum 37 to looped/cyclic peptides of protein X5 of SARS-CoV Urbani / Binding of serum 6 to linear peptides of protein N of SARS-CoV Urbani / Binding of serum 37 to linear peptides of protein N of SARS-CoV Urbani / Binding of serum 6 to linear peptide (PEPSCAN-ELISA) / Binding of serum 1a to looped/cyclic peptides of protein N of SARS-CoV Urbani / Binding of serum 1b to looped/cyclic peptides of protein N of SARS-CoV Urbani / Binding of serum 2 to looped/cyclic peptides of protein N of SARS-CoV Urbani / Binding of serum 6 to looped/cyclic peptides of protein N of SARS-CoV Urbani / Binding of serum 37 to looped/cyclic peptides of protein N of SARS-CoV Urbani / Binding of serum 62 to looped/cyclic peptides of protein N of SARS-CoV Urbani / Binding of serum London to looped/cyclic peptides of protein N of SARS-CoV Urbani / Binding of serum SARS-green to looped/cyclic peptides of protein N of SARS-CoV Urbani: unit not given here
# [3] = system: recombinant human anti-SARS-CoV antibody 03-018; type: binding; set-up: Binding of antibody 03-018 to linear peptides of the N protein of SARS-CoV Urbani / Binding of antibody 03-018 to looped/cyclic peptides of the N protein of SARS-CoV Urbani: unit not given here
# [4] = system: control sera (pooled serum of ten healthy LUMC hospital workers; commercial negative donor pooled serum from the Dutch bloodbank); type: binding, human; set-up: Binding of Control serum LUMC to linear peptides / Binding of Control serum Blood-bank to linear peptides / Binding of Control serum LUMC to looped peptides / Binding of Control Serum Blood-Bank to Looped peptides / Binding of Control serum LUMC to linear peptides of the protein M of SARS-CoV Urbani / Binding of Control serum Blood-bank to linear peptides of the protein M of SARS-CoV Urbani / Binding of Control serum LUMC to looped peptides of the protein M of SARS-CoV Urbani / Binding of Control Serum Blood-Bank to Looped peptides of the protein M of SARS-CoV Urbani: unit not given here
Sequence,Binding of a rabbit serum to linear peptides of protein N of SARS-CoV Urbani (Rabbit serum linear peptides) [1],Binding of a rabbit serum to looped/cyclic peptides of protein N of SARS-CoV Urbani (Rabbit serum looped peptides) [1],Binding of serum 1a to linear peptides of protein N of SARS-CoV Urbani [2],Binding of serum 1a to looped/cyclic peptides of protein N of SARS-CoV Urbani [2],Binding of serum 1b to linear peptides of protein N of SARS-CoV Urbani [2],Binding of serum 1b to looped/cyclic peptides of protein N of SARS-CoV Urbani [2],Binding of serum 2 to linear peptides of protein N of SARS-CoV Urbani [2],Binding of serum 2 to looped/cyclic peptides of protein N of SARS-CoV Urbani [2],Binding of serum 6 to linear peptides of protein N of SARS-CoV Urbani [2],Binding of serum 6 to looped/cyclic peptides of protein N of SARS-CoV Urbani [2],Binding of serum 37 to linear peptides of protein N of SARS-CoV Urbani [2],Binding of serum 37 to looped/cyclic peptides of protein N of SARS-CoV Urbani [2],Binding of serum 62 to linear peptides of protein N of SARS-CoV Urbani [2],Binding of serum 62 to looped/cyclic peptides of protein N of SARS-CoV Urbani [2],Binding of serum London to linear peptides of protein N of SARS-CoV Urbani [2],Binding of serum London to looped/cyclic peptides of protein N of SARS-CoV Urbani [2],Binding of serum SARS-green to linear peptides of protein N of SARS-CoV Urbani [2],Binding of serum SARS-green to looped/cyclic peptides of protein N of SARS-CoV Urbani [2],Binding of serum SARS-yellow to linear peptides of protein N of SARS-CoV Urbani [2],Binding of serum SARS-yellow to looped/cyclic peptides of protein N of SARS-CoV Urbani [2],also measured
TFGGPTDSTDNNQNG,0.1,0.1,0.3,0.3,0.1,0.2,0.2,0.3,0.2,0.2,0.8,0.4,0.6,0.3,0.6,0.3,0.5,0.5,0.5,0.1,Binding of antibody 03-018 to linear peptides of the N protein of SARS-CoV Urbani [3]: 0.1; Binding of antibody 03-018 to looped/cyclic peptides of the N protein of SARS-CoV Urbani [3]: 0.2; Binding of Control Serum Blood-Bank to Looped peptides [4]: 0.5; Binding of Control serum Blood-bank to linear peptides [4]: 0.8; Binding of Control serum LUMC to linear peptides [4]: 0.7; Binding of Control serum LUMC to looped peptides [4]: 0.5
TFPPTEPKKDKKKKT,0.2,0.3,0.2,0.2,0.1,0.1,0.9,0.3,0.3,0.1,0.8,0.4,0.8,0.4,0.5,0.3,0.3,0.1,0.9,0.3,Binding of antibody 03-018 to linear peptides of the N protein of SARS-CoV Urbani [3]: 0.1; Binding of antibody 03-018 to looped/cyclic peptides of the N protein of SARS-CoV Urbani [3]: 0.2; Control Serum Blood-Bank Looped peptides [4]: 0.5; Control serum Blood-bank linear peptides [4]: 0.6; Control serum LUMC linear peptides [4]: 0.7; Control serum LUMC looped peptides [4]: 0.4

# Source: patent US20070128217A1 (priority 2003, published 2007)
